Patent publication US12630542B2, “Compounds and their use as therapeutically active substances in the treatment and/or prevention of diseases involving the retinal pigment epithelium” (ENDOGENA THERAPEUTICS, INC., priority 2020, dated 2026)

Test system: iPSC-fRPE cells
Experiment: Compound screen for RPE pigmentation in iPSC-fRPE cells (light absorbance at 510 nm)
Format: cell-based, human
Conditions: for Relative Pigmentation: test compound 5 μM in 0.1% DMSO, 32 days, absorbance at 510 nm, relative to plate internal DMSO controls (control = 1); for pigmentation of RPE cells / activity, result in words: qualitative statement
Procedure: Induced pluripotent stem cell-derived fetal RPE (iPSC-fRPE) cells acquired from the University of California, Santa Barbara, were generated from human fetal RPE cells that were isolated and reprogramed to iPSC, then differentiated and sorted for cellular markers to collect RPE progenitors. Vials were transported frozen on dry ice and stored in minus 80° C.
For the phenotypic screens, iPSC-fRPE cells were thawed and cultured in Matrigel-coated flasks with N1VA media containing 1×MEM solution supplemented with 2.2 g/L Sodium Bicarbonate, 0.25 mg/ml Taurine, 0.02 ug/ml Hydrocortisone, 0.013 ug/ml Triiodo Thyronine, 0.1 ug/ml Lipoic acid, 1% MEM Non-Essential Amino Acids, 1% Penicillin/Streptomycin, 2% Neurocult SM1 supplement and 1% N1 supplement. For the initial cultures, Thiazovivin was added to the media at 2 uM for the first 24 hr of incubation, after which the media was replaced with fresh N1VA media for additional three-day incubation at 37° C. with 5% CO2.
iPSC-fRPE cells were plated with N1VA media at a density of 10,000 cells per well in Matrigel-coated 96-well plates and cultured for 24 hr prior to the treatment with test compounds at a final concentration of 5 μM in 0.1% DMSO. Internal controls for each test plate were (a) 0.1% DMSO as a negative control and (b) 0.1% DMSO+10 ng/ml human recombinant bFGF (STEMCELL) as a positive control. To identify hits that promote RPE pigmentation, cells were maintained for a period of 32 days and treated with medium containing the test or control compounds according to the media exchange regimen (FIG. 1). The degree of pigmentation was quantified by measuring the light absorbance at 510 nm with Cytation5 imaging reader (BIOTEK). Compounds that increased the normalized absorbance endpoint by more than three standard deviations over the average DMSO readout per plate were considered as hits. Pigmentation values are finally reported relative to plate internal DMSO controls.

Compound | Relative Pigmentation | pigmentation of RPE cells / activity, result in words
O=C(Nc1ccc(-c2cnco2)c(Cl)c1)C1Cc2ccccc2CO1 (racemic) [Compound 3, N-(3-chloro-4-(oxazol-5-yl)phenyl)isochromane-3-carboxamide] | 1.66 | –
O=C(Nc1ccc(-c2cnco2)c(Cl)c1)C1CCOc2ccccc21 (racemic) [Compound 4, N-(3-chloro-4-(oxazol-5-yl)phenyl) chromane-4-carboxamide] | 2.65 | –
O=C(Nc1ccc(-c2cnco2)c(Cl)c1)C1CCc2ccccc21 (racemic) [Compound 6, N-(3-chloro-4-(oxazol-5-yl)phenyl)-2,3-dihydro-1H-indene-1-carboxamide] | 1.86 | –
O=C(Nc1ccc(-c2cnco2)c(Cl)c1)C1COc2ccccc2C1 (single isomer, unassigned; (+)) [Compound 2, (+)-N-(3-chloro-4-(1,3-oxazol-5-yl)phenyl)chromane-3-carboxamide] | 1.68 | –
O=C(Nc1ccc(-c2cnco2)c(Cl)c1)C1COc2ccccc2C1 (single isomer, unassigned; (-)) [Compound 1, (−)-N-(3-chloro-4-(1,3-oxazol-5-yl)phenyl)chromane-3-carboxamide] | 3.05 | excellent results
O=C(Nc1ccc(-c2cnco2)c(Cl)c1)C1Cc2ccccc2C1 [Compound 7, N-(3-chloro-4-(oxazol-5-yl)phenyl)-2,3-dihydro-1H-indene-2-carboxamide] | 2.92 | excellent results
N-(3-chloro-4-(oxazol-5-yl)phenyl)-1,2,3,4-tetrahydronaphthalene-2-carboxamide [Compound 5] | 1.18 | –
